Test results reported in US20190358181A1, “METHODS FOR AUTISM SPECTRUM DISORDER PHARMACOTHERAPY” (priority 2017, published 2019).

Test system: 610 metabolites from 63 biochemical pathways
Test: Targeted broad-spectrum plasma metabolomic analysis (LC-MS/MS), paired pre-infusion vs post-infusion (2-days and 6-weeks)
Assay type: in vivo, human
Settings: for Linear Ratio / VIP Score / Z Abs / Z Score: plasma
Experimental: Targeted, broad-spectrum, plasma metabolomic analysis of 610 metabolites from 63 biochemical pathways was performed by high performance liquid chromatography and tandem mass spectrometry (LC-MS/MS) on the samples collected from patients in Example 1. Venous blood was collected between the hours of 8 am and 5 pm, at least 3 hours after the last meal, into lithium-heparin vacutainer tubes (BD #367884). Plasma was separated by centrifugation at 900 g×10 minutes at room temperature within one hour of collection. The resulting fresh lithium-heparin plasma was transferred to labeled 1.2 ml or 2.0 ml externally threaded cryotubes with a minimum headspace air gap for storage at −80° C. for analysis. Samples were analyzed on an AB SCIEX QTRAP 5500 triple quadrupole mass spectrometer equipped with a Turbo V electrospray ionization (ESI) source, Shimadzu LC-20A UHPLC system, and a PAL CTC autosampler. Typically, 90 μl of plasma was thawed on ice and transferred to a 1.7 ml Eppendorf tube. Five (5.0) μl of a cocktail containing 25-35 commercial stable isotope internal standards, and 5.0 μl of 57 stable isotope internal standards that were custom-synthesized in E. coli NCM3722, Caenorhabditis elegans N2, and Komagataella phaffii (ATCC 76273; formerly known as Pichia pastoris) by metabolic labeling with 13C-glucose and 13C-bicarbonate, were added, mixed, and incubated for 10 min at 20° C. to permit small molecules and vitamins in the internal standards to associate with plasma binding proteins. Macromolecules (protein, DNA, RNA, glycans, etc.) were precipitated by extraction with 4 volumes (400 μl) of cold (−20° C.), acetonitrile:methanol (50:50) (LCMS grade, Cat #LC015-2.5 and GC230-4, Burdick & Jackson, Honeywell), vortexed vigorously, and incubated on crushed ice for 10 min, then removed by centrifugation at 16,000 g×10 min at 4° C. The supernatants containing the extracted metabolites and internal standards in the resulting 40:40:20 solvent mix of acetonitrile:methanol:water were transferred to labeled cryotubes and stored at −80° C. for LCMS/MS analysis.
LC-MS/MS analysis was performed by scheduled multiple reaction monitoring (sMRM) under Analyst v1.6.2 software control in both negative and positive mode with rapid polarity switching (50 ms). Nitrogen was used for curtain gas (set to 30), collision gas (set to high), ion source gas 1 and 2 (set to 35). The source temperature was 500° C. Spray voltage was set to −4500 V in negative mode and 5500 V in positive mode. The values for Q1 and Q3 mass-to-charge ratios (m/z), declustering potential (DP), entrance potential (EP), collision energy (CE), and collision cell exit potential (CXP) were determined and optimized for each MRM for each metabolite. Ten microliters of extract was injected by PAL CTC autosampler via a 10 μl stainless steel loop into a 250 mm×2.0 mm, 4 μm polymer based NH2 HPLC column (Asahipak NH2P-40 2E, Showa Denko America, Inc., NY) held at 25° C. for chromatographic separation. The mobile phase was solvent A: 95% water with 20 mM (NH4)2CO3 (Sigma, Fluka Cat #74415-250G-F), 5% acetonitrile, and 38 mM NH4OH (Sigma, Fluka Cat #17837-100ML), final pH 9.75; solvent B: 100% acetonitrile. Separation was achieved using the following gradient: 0-3.5 min: 95% B, 3.6-8 min: 85% B, 8.1-13 min: 75% B, 13.5-35 min: 0% B, 36-46 min: 95% B, 46.1 min: end. The flow rate was 200 μl/min. Pump pressures ranged from 920-2600 psi over the course of the gradient. All the samples were kept at 4° C. during analysis. The chromatographic peaks were identified using MultiQuant (v3.0, Sciex), confirmed by manual inspection, and the peak areas integrated. […]

[1] = Fatty Acid Oxidation and Synthesis, 6-weeks
[2] = GABA, Glutamate, Arginine, Ornithine, Proline, 6-weeks
[3] = GABA, Glutamate, Arginine, Ornithine, 2-days
[4] = Gamma-Glutamyl and other Dipeptides, 2-days
[5] = Gamma-Glutamyl and other Dipeptides, 6-weeks
[6] = Gamma-glutamyl-Alanine, 6-weeks
[7] = Glycolysis and Gluconeogenesis Metabolism, 2-days
[8] = Glycolysis and Gluconeogenesis Metabolism, 6-weeks
[9] = Glycosphingolipid Metabolism, 2-days
[10] = Hexose Disaccharide Pool, 6-weeks
[11] = Histidine, Histamine, Carnosine Metabolism, 2-days
[12] = Histidine, Histamine, Carnosine Metabolism, 6-weeks

Cc1ccc(C(=O)Nc2ccc(S(=O)(=O)O)c3cc(S(=O)(=O)O)cc(S(=O)(=O)O)c23)cc1NC(=O)c1cccc(NC(=O)Nc2cccc(C(=O)Nc3cc(C(=O)Nc4ccc(S(=O)(=O)O)c5cc(S(=O)(=O)O)cc(S(=O)(=O)O)c45)ccc3C)c2)c1 [Suramin, suramin]
Increased [1]: 0
Observed Hits in the Top 48 Metabolites [1]: 3
Decreased [2]: 0
Fold Enrichment (Obs/Exp) [2]: 3.0
Fraction of Impact (VIP Score) Explained (% of 94.6) [2]: 4%
Impact (Sum VIP Score) [2]: 3.9
Increased [2]: 2
Observed Hits in the Top 48 Metabolites [2]: 2
Decreased [3]: 0
Fold Enrichment (Obs/Exp) [3]: 3.5
Fraction of Impact (VIP Score) Explained (% of 119.7) [3]: 4%
Impact (Sum VIP Score) [3]: 4.7
Increased [3]: 3
Observed Hits in the Top 61 Metabolites [3]: 3
Decreased [4]: 0
Fold Enrichment (Obs/Exp) [4]: 7.1
Fraction of Impact (VIP Score) Explained (% of 119.7) [4]: 3%
Impact (Sum VIP Score) [4]: 3.8
Increased [4]: 2
Observed Hits in the Top 61 Metabolites [4]: 2
Decreased [5]: 0
Fold Enrichment (Obs/Exp) [5]: 4.5
Fraction of Impact (VIP Score) Explained (% of 94.6) [5]: 2%
Impact (Sum VIP Score) [5]: 2.4
Increased [5]: 1
Observed Hits in the Top 48 Metabolites [5]: 1
Linear Ratio [6]: 1.644
VIP Score [6]: 2.353
Z Abs [6]: 1.725
Z Score [6]: 1.725
Linear Ratio (Glycerol 3-phosphate, 6-weeks): 1.294
VIP Score (Glycerol 3-phosphate, 6-weeks): 2.081
Z Abs (Glycerol 3-phosphate, 6-weeks): 1.731
Z Score (Glycerol 3-phosphate, 6-weeks): 1.731
Linear Ratio (Glycine, 6-weeks): 1.392
VIP Score (Glycine, 6-weeks): 2.523
Z Abs (Glycine, 6-weeks): 1.891
Z Score (Glycine, 6-weeks): 1.891
Linear Ratio (Glycocholic acid, 6-weeks): 2.270
VIP Score (Glycocholic acid, 6-weeks): 1.956
Z Abs (Glycocholic acid, 6-weeks): 1.945
Z Score (Glycocholic acid, 6-weeks): 1.945
Decreased [7]: 0
Fold Enrichment (Obs/Exp) [7]: 2.0
Fraction of Impact (VIP Score) Explained (% of 119.7) [7]: 4%
Impact (Sum VIP Score) [7]: 4.3
Increased [7]: 2
Observed Hits in the Top 61 Metabolites [7]: 2
Decreased [8]: 0
Fold Enrichment (Obs/Exp) [8]: 1.3
Fraction of Impact (VIP Score) Explained (% of 94.6) [8]: 2%
Impact (Sum VIP Score) [8]: 2.1
Increased [8]: 1
Observed Hits in the Top 48 Metabolites [8]: 1
Decreased [9]: 0
Fold Enrichment (Obs/Exp) [9]: 0.6
Fraction of Impact (VIP Score) Explained (% of 119.7) [9]: 2%
Impact (Sum VIP Score) [9]: 2.1
Increased [9]: 1
Observed Hits in the Top 61 Metabolites [9]: 1
Linear Ratio (Guanidinoacetic acid, 6-weeks): 1.217
VIP Score (Guanidinoacetic acid, 6-weeks): 1.644
Z Abs (Guanidinoacetic acid, 6-weeks): 1.254
Z Score (Guanidinoacetic acid, 6-weeks): 1.254
Linear Ratio [10]: 2.121
VIP Score [10]: 1.911
Z Abs [10]: 1.220
Z Score [10]: 1.220
Linear Ratio (Hippuric acid, 6-weeks): 1.602
VIP Score (Hippuric acid, 6-weeks): 1.559
Z Abs (Hippuric acid, 6-weeks): 0.881
Z Score (Hippuric acid, 6-weeks): 0.881
Linear Ratio (Histamine, 6-weeks): 1.219
VIP Score (Histamine, 6-weeks): 2.279
Z Abs (Histamine, 6-weeks): 1.312
Z Score (Histamine, 6-weeks): 1.312
Decreased [11]: 0
Fold Enrichment (Obs/Exp) [11]: 1.8
Fraction of Impact (VIP Score) Explained (% of 119.7) [11]: 2%
Impact (Sum VIP Score) [11]: 1.8
Increased [11]: 1
Observed Hits in the Top 61 Metabolites [11]: 1
Decreased [12]: 0
Fold Enrichment (Obs/Exp) [12]: 2.2
Fraction of Impact (VIP Score) Explained (% of 94.6) [12]: 2%
Impact (Sum VIP Score) [12]: 2.3
Increased [12]: 1
Observed Hits in the Top 48 Metabolites [12]: 1
Linear Ratio (Hydroxyproline, 6-weeks): 1.210
VIP Score (Hydroxyproline, 6-weeks): 2.039
Z Abs (Hydroxyproline, 6-weeks): 3.005
Z Score (Hydroxyproline, 6-weeks): 3.005
Decreased (Krebs Cycle, 2-days): 0
